The values below are quoted from earlier work in patent US11667623B2, “Scaffold of adenylyl cyclase inhibitors for chronic pain and opioid dependence” (Purdue Research Foundation, priority 2017, dated 2023).

Data set [1] deals with HEK-AC1 cells. The following applies: data from Brust et al. 2017; cited from earlier work.
In data set [2] the target is T1, hAC2 (Homo sapiens, UniProt Q08462).
T1 construct: expressed in transfected cells
The following applies: Table 1; at 30 μM; 100 nM PMA; data from Brust et al. 2017; cited from earlier work.

Data set [3] concerns the target T2, hAC1 (Homo sapiens, UniProt Q08828).
T2 construct: expressed in transfected cells
The following applies: Table 1; data from Brust et al. 2017; cited from earlier work.

Data set [4] deals with T3, hAC5 (Homo sapiens, UniProt O95622).
T3 construct: expressed in transfected cells
The following applies: Table 1; at 30 μM; 300 nM forskolin; data from Brust et al. 2017; cited from earlier work.

T1 sequence (Q08462 whole entry): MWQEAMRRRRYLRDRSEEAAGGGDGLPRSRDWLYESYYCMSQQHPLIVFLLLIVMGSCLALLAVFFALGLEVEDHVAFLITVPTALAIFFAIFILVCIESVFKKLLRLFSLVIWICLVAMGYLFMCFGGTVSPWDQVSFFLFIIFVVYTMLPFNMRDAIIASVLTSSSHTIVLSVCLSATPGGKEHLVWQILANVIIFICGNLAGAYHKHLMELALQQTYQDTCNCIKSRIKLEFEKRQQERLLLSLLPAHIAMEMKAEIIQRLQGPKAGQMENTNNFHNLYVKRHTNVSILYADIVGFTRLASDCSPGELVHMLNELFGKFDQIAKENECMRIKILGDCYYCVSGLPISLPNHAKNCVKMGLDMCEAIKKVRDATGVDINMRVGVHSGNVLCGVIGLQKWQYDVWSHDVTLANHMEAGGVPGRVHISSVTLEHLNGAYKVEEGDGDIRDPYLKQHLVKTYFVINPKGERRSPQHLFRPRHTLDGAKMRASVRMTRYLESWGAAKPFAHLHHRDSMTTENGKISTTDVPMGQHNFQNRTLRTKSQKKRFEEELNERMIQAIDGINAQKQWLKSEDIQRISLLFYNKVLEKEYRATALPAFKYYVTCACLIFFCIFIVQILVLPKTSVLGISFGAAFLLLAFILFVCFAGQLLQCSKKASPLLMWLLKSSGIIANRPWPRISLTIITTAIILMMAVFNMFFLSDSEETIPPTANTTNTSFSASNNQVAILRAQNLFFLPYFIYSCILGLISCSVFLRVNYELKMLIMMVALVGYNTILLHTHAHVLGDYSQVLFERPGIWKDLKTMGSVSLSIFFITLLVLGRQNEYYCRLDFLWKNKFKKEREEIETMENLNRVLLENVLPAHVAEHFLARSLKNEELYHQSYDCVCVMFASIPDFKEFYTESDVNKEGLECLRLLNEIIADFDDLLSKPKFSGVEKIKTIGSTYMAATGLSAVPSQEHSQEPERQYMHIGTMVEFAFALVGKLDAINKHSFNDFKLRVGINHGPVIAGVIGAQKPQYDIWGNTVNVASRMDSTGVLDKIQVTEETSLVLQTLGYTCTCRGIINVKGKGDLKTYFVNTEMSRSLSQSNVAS
T3 sequence (O95622 whole entry): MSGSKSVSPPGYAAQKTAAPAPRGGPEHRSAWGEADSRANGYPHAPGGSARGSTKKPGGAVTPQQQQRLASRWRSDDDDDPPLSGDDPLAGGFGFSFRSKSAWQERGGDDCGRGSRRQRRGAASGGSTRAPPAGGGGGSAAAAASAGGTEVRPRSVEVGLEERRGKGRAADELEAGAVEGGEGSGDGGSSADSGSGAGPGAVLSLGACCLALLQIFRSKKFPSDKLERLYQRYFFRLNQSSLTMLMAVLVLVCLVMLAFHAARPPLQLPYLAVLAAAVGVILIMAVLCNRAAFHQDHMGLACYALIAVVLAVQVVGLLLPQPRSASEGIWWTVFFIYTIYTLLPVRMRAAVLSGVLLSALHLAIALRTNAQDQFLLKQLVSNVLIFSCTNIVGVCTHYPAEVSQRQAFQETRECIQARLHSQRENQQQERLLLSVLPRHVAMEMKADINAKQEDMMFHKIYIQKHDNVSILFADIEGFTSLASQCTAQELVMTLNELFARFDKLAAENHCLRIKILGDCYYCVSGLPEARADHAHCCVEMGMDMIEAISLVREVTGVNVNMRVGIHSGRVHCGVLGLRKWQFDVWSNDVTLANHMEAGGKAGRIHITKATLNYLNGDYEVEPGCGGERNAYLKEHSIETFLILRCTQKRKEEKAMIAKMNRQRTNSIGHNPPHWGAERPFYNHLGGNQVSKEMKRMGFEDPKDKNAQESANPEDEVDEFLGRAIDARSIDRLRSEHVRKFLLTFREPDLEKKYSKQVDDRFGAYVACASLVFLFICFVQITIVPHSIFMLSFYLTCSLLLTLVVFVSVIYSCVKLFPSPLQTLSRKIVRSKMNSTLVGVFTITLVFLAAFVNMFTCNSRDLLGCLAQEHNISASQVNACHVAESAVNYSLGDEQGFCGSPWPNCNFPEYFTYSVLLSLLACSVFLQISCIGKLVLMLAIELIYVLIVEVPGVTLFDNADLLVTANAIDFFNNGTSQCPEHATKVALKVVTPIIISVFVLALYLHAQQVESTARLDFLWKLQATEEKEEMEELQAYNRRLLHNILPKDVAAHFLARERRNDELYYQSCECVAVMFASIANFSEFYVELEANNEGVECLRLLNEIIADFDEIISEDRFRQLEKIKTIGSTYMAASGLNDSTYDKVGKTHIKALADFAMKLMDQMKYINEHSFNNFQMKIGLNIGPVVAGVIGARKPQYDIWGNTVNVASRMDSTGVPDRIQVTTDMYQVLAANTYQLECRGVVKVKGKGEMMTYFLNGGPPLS
T2 sequence (Q08828 whole entry): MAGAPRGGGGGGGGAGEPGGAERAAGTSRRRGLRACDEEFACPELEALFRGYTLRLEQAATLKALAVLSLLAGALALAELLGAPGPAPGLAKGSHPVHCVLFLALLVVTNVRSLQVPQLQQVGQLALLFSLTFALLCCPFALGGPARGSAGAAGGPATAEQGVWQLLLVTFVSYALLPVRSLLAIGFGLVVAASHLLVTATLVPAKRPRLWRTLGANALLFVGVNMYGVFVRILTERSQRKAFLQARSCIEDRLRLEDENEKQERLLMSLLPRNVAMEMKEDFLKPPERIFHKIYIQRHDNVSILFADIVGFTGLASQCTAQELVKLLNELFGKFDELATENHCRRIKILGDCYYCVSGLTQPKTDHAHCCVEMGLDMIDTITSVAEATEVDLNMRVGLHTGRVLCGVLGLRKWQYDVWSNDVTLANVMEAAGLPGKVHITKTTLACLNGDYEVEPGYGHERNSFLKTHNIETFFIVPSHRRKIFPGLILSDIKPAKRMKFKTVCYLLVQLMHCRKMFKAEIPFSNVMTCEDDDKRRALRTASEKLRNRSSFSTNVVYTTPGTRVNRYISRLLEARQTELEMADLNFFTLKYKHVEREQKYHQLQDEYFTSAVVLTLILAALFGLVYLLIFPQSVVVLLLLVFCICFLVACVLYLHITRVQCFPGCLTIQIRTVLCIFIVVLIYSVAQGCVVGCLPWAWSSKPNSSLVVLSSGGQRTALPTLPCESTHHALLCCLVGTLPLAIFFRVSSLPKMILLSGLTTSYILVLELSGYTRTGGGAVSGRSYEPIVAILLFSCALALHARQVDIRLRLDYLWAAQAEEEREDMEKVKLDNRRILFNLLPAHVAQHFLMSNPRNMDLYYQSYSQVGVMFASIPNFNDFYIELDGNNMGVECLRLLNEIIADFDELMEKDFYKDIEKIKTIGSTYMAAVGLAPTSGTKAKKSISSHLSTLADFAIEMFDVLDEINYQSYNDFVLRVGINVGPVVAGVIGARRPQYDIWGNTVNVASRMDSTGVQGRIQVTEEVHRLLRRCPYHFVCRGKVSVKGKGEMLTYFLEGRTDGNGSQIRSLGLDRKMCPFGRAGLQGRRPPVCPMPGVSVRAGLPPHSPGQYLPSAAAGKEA

Take `O=c1cc(C(Cl)(Cl)Cl)oc2ccc(Cl)cc12` [ST034307, 6-chloro-2-(trichloromethyl)-4H-chromen-4-one]: the “Viability % Veh” value in data set [1] is listed as 85 ± 6 % Veh. In data set [2], the “hAC2 % Inhib” value was −142%. Moreover, the “hAC1 % Inhib” value in data set [3] is given as 108 ± 10%. Moreover, in data set [4], the “hAC5 % Inhib” value is −44%.
